Data published in patent US20020137929A1, “1 - (3-heterocyclylphenyl) isothiourea, -isourea, -guanidine and -amidine herbicidal agents” (Intellectual Property Department, BASF Aktiengesellschaft, priority 1998, published 2002).

Assays:
AMBEL (Ragweed, Common) = assay: Postemergence herbicidal evaluation; format: in vivo, Ambrosia artemisifolia; details: postemergence
In short: (§1)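 Herbicidal effect was judged by eye on a 0–9 scale covering stand, vigor, deformity, size and chlorosis, compared with controls, four to five weeks after seedlings about two weeks old were sprayed (40 psi, ~0.0156–0.500 kg/ha).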

CASOB (Sicklepod) [1] = assay: Postemergence herbicidal evaluation; format: in vivo, Cassia obtusifolia; details: postemergence
In short: as §1

GALAP (Galium) = assay: Postemergence herbicidal evaluation; format: in vivo, Galium aparine; details: postemergence
In short: as §1

[2] = tested on: IPOHE (Morningglory, Ivyleaf); assay: Postemergence herbicidal evaluation; format: in vivo, Ipomoea hederacea; details: postemergence
In short: as §1

ABUTH (Velvetleaf) = assay: Preemergence herbicidal evaluation; format: in vivo, Abutilon theophrasti; details: rated 4-5 weeks after treatment
In short: (§2)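 Each species is sown separately in potting soil over roughly an inch of soil before any emergence. The soil surface then receives an aqueous acetone spray delivering about 0.0156 to 0.500 kg/ha of compound. After four to five weeks, injury is scored from 0 to 9 relative to a control.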

CASOB (Sicklepod) [3] = assay: Preemergence herbicidal evaluation; format: in vivo, Cassia obtusifolia; details: rated 4-5 weeks after treatment
In short: as §2

[4] = tested on: IPOHE (Morningglory, Ivyleaf); assay: Preemergence herbicidal evaluation; format: in vivo, Ipomoea hederacea; details: rated 4-5 weeks after treatment
In short: as §2

ECHCG (Barnyardgrass) = assay: Preemergence herbicidal evaluation; format: in vivo, Echinochloa crus-galli; details: rated 4-5 weeks after treatment
In short: as §2

[5] = tested on: GLXMAW (Soybean, Williams); assay: Preemergence herbicidal evaluation; format: in vivo, Glycine max, (L.) Merr. cv Williams; details: rated 4-5 weeks after treatment
In short: as §2

[6] = tested on: TRZAWR (Wheat, Winter, cv Riband); assay: Preemergence herbicidal evaluation; format: in vivo, Triticum aestivum; details: rated 4-5 weeks after treatment
In short: as §2

ZEAMX (Corn, Field) = assay: Preemergence herbicidal evaluation; format: in vivo, Zea mays; details: rated 4-5 weeks after treatment
In short: as §2

MOOVA (Monochoria) = assay: Preemergence weed control under flooded paddy conditions; format: in vivo, Monochoria vaginalis; details: rated 3-4 weeks after treatment
In short: (§3)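 Silt loam, seeds in top 0.5 cm; flood held 1.5-3 cm; test cpd as acetone/water 50/50 into flood water, ~0.0313-0.500 kg/ha a.i.; greenhouse 3-4 wk; visual 0-9 score vs control.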

[7] = tested on: SAGPY (Arrowhead (Pygmaea)); assay: as above; format: in vivo, Sagittaria pygmaea; details: rated 3-4 weeks after treatment
In short: as §3

CYPIR (Rice Flatsedge) = assay: Postemergence weed control under flooded paddy conditions; format: in vivo, Cyperus iria; details: postemergence weeds, 3-4 weeks after treatment
In short: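 Injury ratings (0–9 scale covering stand, vigor, malformation, size, chlorosis and overall appearance versus control) were made three to four weeks after treatment. Test material, about 0.0313 to 0.500 kg/ha a.i. in 50/50 v/v aqueous/acetone, was added to flood water 1.5 to 3 cm deep over 3 to 5 cm weeds and 1.5 to 2.5 leaf rice.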

Cn1c(C(F)(F)F)cc(=O)n(-c2cc(N=C3SCC(=O)N3Cc3ccccc3)c(Cl)cc2F)c1=O [Compound 26]
3.0: GALAP herbicidal rating (GALAP (Galium); rate 0.0156 kg/ha) | Preemergence herbicidal rating IPOHE ([4]; rate 0.2500 kg/ha)
5.0: GALAP herbicidal rating (GALAP (Galium); rate 0.0313 kg/ha) | GALAP herbicidal rating (GALAP (Galium); rate 0.0625 kg/ha) | Preemergence herbicidal rating ZEAMX (ZEAMX (Corn, Field); rate 0.2500 kg/ha) | Herbicidal rating SAGPY ([7]; 0.1250 kg/ha)
2.0: Preemergence herbicidal rating IPOHE ([4]; rate 0.1250 kg/ha) | Preemergence herbicidal rating ECHCG (ECHCG (Barnyardgrass); rate 0.2500 kg/ha) | Preemergence herbicidal rating ZEAMX (ZEAMX (Corn, Field); rate 0.0625 kg/ha) | Herbicidal rating CYPIR (CYPIR (Rice Flatsedge); rate 0.0313 kg/ha)
7.0: Herbicidal rating SAGPY ([7]; 0.2500 kg/ha) | Herbicidal rating CYPIR (CYPIR (Rice Flatsedge); rate 0.1250 kg/ha)
1.0: Preemergence herbicidal rating ECHCG (ECHCG (Barnyardgrass); rate 0.1250 kg/ha) | Preemergence herbicidal rating GLXMAW ([5]; rate 0.2500 kg/ha) | Preemergence herbicidal rating TRZAWR ([6]; rate 0.2500 kg/ha)
9.0: AMBEL herbicidal rating (AMBEL (Ragweed, Common); rate 0.0156 kg/ha) | AMBEL herbicidal rating (AMBEL (Ragweed, Common); rate 0.0625 kg/ha) | IPOHE herbicidal rating ([2]; rate 0.0156 kg/ha) | IPOHE herbicidal rating ([2]; rate 0.0313 kg/ha) | IPOHE herbicidal rating ([2]; rate 0.0625 kg/ha) | Preemergence herbicidal rating ABUTH (ABUTH (Velvetleaf); rate 0.2500 kg/ha) | Herbicidal rating MOOVA (MOOVA (Monochoria); 0.0313 kg/ha) | Herbicidal rating MOOVA (MOOVA (Monochoria); 0.0625 kg/ha) | Herbicidal rating MOOVA (MOOVA (Monochoria); 0.1250 kg/ha) | Herbicidal rating MOOVA (MOOVA (Monochoria); 0.2500 kg/ha) | Herbicidal rating CYPIR (CYPIR (Rice Flatsedge); rate 0.2500 kg/ha)
8.0: AMBEL herbicidal rating (AMBEL (Ragweed, Common); rate 0.0313 kg/ha)
6.0: Preemergence herbicidal rating ABUTH (ABUTH (Velvetleaf); rate 0.1250 kg/ha)
4.0: Preemergence herbicidal rating ZEAMX (ZEAMX (Corn, Field); rate 0.1250 kg/ha) | Herbicidal rating SAGPY ([7]; 0.0625 kg/ha) | Herbicidal rating CYPIR (CYPIR (Rice Flatsedge); rate 0.0625 kg/ha)
0.0: CASOB herbicidal rating (CASOB (Sicklepod) [1]; rate 0.0156 kg/ha) | CASOB herbicidal rating (CASOB (Sicklepod) [1]; rate 0.0313 kg/ha) | CASOB herbicidal rating (CASOB (Sicklepod) [1]; rate 0.0625 kg/ha) | Preemergence herbicidal rating ABUTH (ABUTH (Velvetleaf); rate 0.0156 kg/ha) | Preemergence herbicidal rating ABUTH (ABUTH (Velvetleaf); rate 0.0313 kg/ha) | Preemergence herbicidal rating ABUTH (ABUTH (Velvetleaf); rate 0.0625 kg/ha) | Preemergence herbicidal rating CASOB (CASOB (Sicklepod) [3]; rate 0.0156 kg/ha) | Preemergence herbicidal rating CASOB (CASOB (Sicklepod) [3]; rate 0.0313 kg/ha) | Preemergence herbicidal rating CASOB (CASOB (Sicklepod) [3]; rate 0.0625 kg/ha) | Preemergence herbicidal rating CASOB (CASOB (Sicklepod) [3]; rate 0.1250 kg/ha) | Preemergence herbicidal rating CASOB (CASOB (Sicklepod) [3]; rate 0.2500 kg/ha) | Preemergence herbicidal rating IPOHE ([4]; rate 0.0156 kg/ha) | Preemergence herbicidal rating IPOHE ([4]; rate 0.0313 kg/ha) | Preemergence herbicidal rating IPOHE ([4]; rate 0.0625 kg/ha) | Preemergence herbicidal rating ECHCG (ECHCG (Barnyardgrass); rate 0.0156 kg/ha) | Preemergence herbicidal rating ECHCG (ECHCG (Barnyardgrass); rate 0.0313 kg/ha) | Preemergence herbicidal rating ECHCG (ECHCG (Barnyardgrass); rate 0.0625 kg/ha) | Preemergence herbicidal rating GLXMAW ([5]; rate 0.0156 kg/ha) | Preemergence herbicidal rating GLXMAW ([5]; rate 0.0313 kg/ha) | Preemergence herbicidal rating GLXMAW ([5]; rate 0.0625 kg/ha) | Preemergence herbicidal rating GLXMAW ([5]; rate 0.1250 kg/ha) | Preemergence herbicidal rating TRZAWR ([6]; rate 0.0156 kg/ha) | Preemergence herbicidal rating TRZAWR ([6]; rate 0.0313 kg/ha) | Preemergence herbicidal rating TRZAWR ([6]; rate 0.0625 kg/ha) | Preemergence herbicidal rating TRZAWR ([6]; rate 0.1250 kg/ha) | Preemergence herbicidal rating ZEAMX (ZEAMX (Corn, Field); rate 0.0156 kg/ha) | Preemergence herbicidal rating ZEAMX (ZEAMX (Corn, Field); rate 0.0313 kg/ha) | Herbicidal rating SAGPY ([7]; 0.0313 kg/ha)

CCOC(=O)CN1C(=O)C2(CC2)SC1=Nc1cc(-n2c(=O)cc(C(F)(F)F)n(C)c2=O)c(F)cc1Cl [Compound 15, Ethyl 5-{{2-chloro-5-[3,6-dihydro-3-methyl-2,6-dioxo-4-(trifluoromethyl)-1(2H)-pyrimidinyl]-4-fluorophenyl}imino}-7-oxo-4-thia-6-azaspiro[2.4]-heptane-6-acetate]
4.5: ECHCG preemergence herbicidal rating (ECHCG (Barnyardgrass); rate 0.2500 kg/ha)
2.0: CASOB preemergence herbicidal rating (CASOB (Sicklepod) [3]; rate 0.1250 kg/ha) | ECHCG preemergence herbicidal rating (ECHCG (Barnyardgrass); rate 0.1250 kg/ha) | Herbicidal rating CYPIR (CYPIR (Rice Flatsedge); rate 0.0313 kg/ha) | Herbicidal rating CYPIR (CYPIR (Rice Flatsedge); rate 0.0625 kg/ha)
4.0: AMBEL herbicidal rating (AMBEL (Ragweed, Common); rate 0.0625 kg/ha) | CASOB herbicidal rating (CASOB (Sicklepod) [1]; rate 0.1250 kg/ha)
7.0: IPOHE preemergence herbicidal rating ([4]; rate 0.1250 kg/ha) | Herbicidal rating CYPIR (CYPIR (Rice Flatsedge); rate 0.2500 kg/ha)
1.5: ABUTH preemergence herbicidal rating (ABUTH (Velvetleaf); rate 0.0156 kg/ha) | IPOHE preemergence herbicidal rating ([4]; rate 0.0313 kg/ha) | IPOHE preemergence herbicidal rating ([4]; rate 0.0625 kg/ha)
5.0: TRZAWR preemergence herbicidal rating ([6]; rate 0.1250 kg/ha) | TRZAWR preemergence herbicidal rating ([6]; rate 0.2500 kg/ha) | ZEAMX preemergence herbicidal rating (ZEAMX (Corn, Field); rate 0.2500 kg/ha)
6.0: GALAP herbicidal rating (GALAP (Galium); rate 0.1250 kg/ha) | IPOHE herbicidal rating ([2]; rate 0.0156 kg/ha) | Herbicidal rating CYPIR (CYPIR (Rice Flatsedge); rate 0.1250 kg/ha)
1.0: IPOHE preemergence herbicidal rating ([4]; rate 0.0156 kg/ha) | ECHCG preemergence herbicidal rating (ECHCG (Barnyardgrass); rate 0.0625 kg/ha) | GLXMAW preemergence herbicidal rating ([5]; rate 0.0625 kg/ha) | ZEAMX preemergence herbicidal rating (ZEAMX (Corn, Field); rate 0.0156 kg/ha) | ZEAMX preemergence herbicidal rating (ZEAMX (Corn, Field); rate 0.0313 kg/ha)
3.0: GALAP herbicidal rating (GALAP (Galium); rate 0.0625 kg/ha) | ABUTH preemergence herbicidal rating (ABUTH (Velvetleaf); rate 0.0313 kg/ha) | ZEAMX preemergence herbicidal rating (ZEAMX (Corn, Field); rate 0.1250 kg/ha)
0.5: CASOB preemergence herbicidal rating (CASOB (Sicklepod) [3]; rate 0.0313 kg/ha) | CASOB preemergence herbicidal rating (CASOB (Sicklepod) [3]; rate 0.0625 kg/ha) | ECHCG preemergence herbicidal rating (ECHCG (Barnyardgrass); rate 0.0313 kg/ha) | GLXMAW preemergence herbicidal rating ([5]; rate 0.0156 kg/ha) | GLXMAW preemergence herbicidal rating ([5]; rate 0.0313 kg/ha)
2.5: GLXMAW preemergence herbicidal rating ([5]; rate 0.1250 kg/ha) | ZEAMX preemergence herbicidal rating (ZEAMX (Corn, Field); rate 0.0625 kg/ha)
6.5: CASOB preemergence herbicidal rating (CASOB (Sicklepod) [3]; rate 0.2500 kg/ha)
5.5: GLXMAW preemergence herbicidal rating ([5]; rate 0.2500 kg/ha)
9.0: AMBEL herbicidal rating (AMBEL (Ragweed, Common); rate 0.1250 kg/ha) | IPOHE herbicidal rating ([2]; rate 0.0313 kg/ha) | IPOHE herbicidal rating ([2]; rate 0.0625 kg/ha) | IPOHE herbicidal rating ([2]; rate 0.1250 kg/ha) | ABUTH preemergence herbicidal rating (ABUTH (Velvetleaf); rate 0.0625 kg/ha) | ABUTH preemergence herbicidal rating (ABUTH (Velvetleaf); rate 0.1250 kg/ha) | ABUTH preemergence herbicidal rating (ABUTH (Velvetleaf); rate 0.2500 kg/ha) | IPOHE preemergence herbicidal rating ([4]; rate 0.2500 kg/ha) | Herbicidal rating MOOVA (MOOVA (Monochoria); 0.0313 kg/ha) | Herbicidal rating MOOVA (MOOVA (Monochoria); 0.0625 kg/ha) | Herbicidal rating MOOVA (MOOVA (Monochoria); 0.1250 kg/ha) | Herbicidal rating MOOVA (MOOVA (Monochoria); 0.2500 kg/ha)
0.0: AMBEL herbicidal rating (AMBEL (Ragweed, Common); rate 0.0156 kg/ha) | AMBEL herbicidal rating (AMBEL (Ragweed, Common); rate 0.0313 kg/ha) | CASOB herbicidal rating (CASOB (Sicklepod) [1]; rate 0.0156 kg/ha) | CASOB herbicidal rating (CASOB (Sicklepod) [1]; rate 0.0313 kg/ha) | CASOB herbicidal rating (CASOB (Sicklepod) [1]; rate 0.0625 kg/ha) | GALAP herbicidal rating (GALAP (Galium); rate 0.0156 kg/ha) | GALAP herbicidal rating (GALAP (Galium); rate 0.0313 kg/ha) | CASOB preemergence herbicidal rating (CASOB (Sicklepod) [3]; rate 0.0156 kg/ha) | ECHCG preemergence herbicidal rating (ECHCG (Barnyardgrass); rate 0.0156 kg/ha) | TRZAWR preemergence herbicidal rating ([6]; rate 0.0156 kg/ha) | TRZAWR preemergence herbicidal rating ([6]; rate 0.0313 kg/ha) | TRZAWR preemergence herbicidal rating ([6]; rate 0.0625 kg/ha) | Herbicidal rating SAGPY ([7]; 0.0313 kg/ha) | Herbicidal rating SAGPY ([7]; 0.0625 kg/ha) | Herbicidal rating SAGPY ([7]; 0.1250 kg/ha) | Herbicidal rating SAGPY ([7]; 0.2500 kg/ha)
